Source: patent publication US8093244B2, “Heteroaryl urea derivatives useful for inhibiting CHK1” (ICOS Corporation, priority 2005, dated 2012)

Legend:
[1] = test system: Chk1; experiment: Western blot of Chk1 phosphorylation at serine 296 in HT29 cells (Example 10); assay type: cell-based, human; details: gemcitabine 20 μM for two h, 22 additional h
Experimental: Phosphorylation at this site is not inhibited by wortmannin, which inhibits Atm and Atr. Therefore, the phosphorylation of serine 296 is distinct from phosphorylation at serines 317 and 345. […] Therefore, this approach can be used to monitor Chk1 activity in tumors in response to Chk1 activators. Further, this approach can be used to measure inhibition of Chk1 activation by Chk1 inhibitors.
Thus, HT 29 cells are treated with 20 μM gemcitabine for two h. The gemcitabine is washed out of the cell growth media and cells are incubated for 22 additional h. Protein lysates are prepared and separated by an SDS-polyacrylamide gel electrophoresis. Proteins are transferred to polyvinylidene fluoride (PVDF) membranes and probed with antisera (Cell Signalling) specific for phosphorlyated serine 296 (Cell Signalling). […] Further, HT29 cells treated with selective Chk1 inhibitors for 15 min show no serine 296 phosphorylation.

[2] = test system: Chk1; experiment: Western blot of Chk1 phosphorylation at serines 317 and 345 in HT29 cells (Example 9); assay type: cell-based, human; details: 20 μM for two h, 22 additional h
Source text: To determine whether an agent is a Chk1 activator, the phosphorylation state of Chk1 can be measured using phospho-specific antibodies to specific phosphorylation sites on Chk1. […] Liu et al., Genes Dev. 14:1448-1459, 2000; Zhao et al., Mol. Cell Biol. 21:4129-4139, 2001; Lopez-Girona et al., Proc. Natl. Acad. Sci. U.S.A. 98:11289-11294, 2001; Guo et al., Genes Dev. 14:2745-2756, 2000; Gatei et al., J. Biol. Chem. 278:14806-14811, 2003; Ng et al., J Biol Chem. 279 (10):8808-19, 2004; Wang et al., Natl Acad Sci USA. 100(26):15387-92, 2003; Stojic et al., Genes Dev. 18(11):1331-44, 2004. These serine sites are phosphorylated by upstream checkpoint kinases, Atm and Atr. Liu et al., Genes Dev. 14:1448-1459, 2000; Zhao et al. Mol. Cell Biol., 21:4129-4139, 2001).
The phosphorylation of these sites in response to a candidate Chk1 activator can be monitored by Western blot or immunohistochemistry of tumor cells. […] HT29 cells are treated with 20 μM gemcitabine for two h. The gemcitabine is washed out of the cell growth media and cells are incubated for 22 additional h. Protein lysates are prepared and separated by an SDS-polyacrylamide gel electrophoresis. Proteins are transferred to PVDF membranes and probed with antisera (Cell Signalling) specific for either phosphorylated serine 317 or 345 (Cell Signalling).

[3] = test system: xenograft tumors of colon tumor cell lines; experiment: Xenograft animal tumor models (Example 11); assay type: in vivo, Balb/c (nu/nu) mice; details: 160 mg/kg intraperitoneal
Source text: To test the ability of the Chk1 inhibitors of the invention to enhance the killing of tumors by DNA damaging agents in mice, xenograft tumor models using colon tumor cell lines are established. 5-fluorouracil (5-FU) or gemcitabine can be used as DNA damaging agents. HT29 and Colo205 (human colon carcinoma) and H460 and Calu-6 (nonsmall cell carcinoma) cells can be used to propagate xenograft tumors in 6-8 week old female […] Balb/c (nu/nu) mice. Mice are maintained in a laminar airflow cabinet under pathogen-free conditions and fed sterile food and water ad libitum. Cell lines are grown to subconfluence in RPMI 1640 media supplemented with 10% FBS, 100 U/mL penicillin, 100 μg/mL streptomycin, and 1.5 mM L-glutamine in a 5% CO2 humidified environment. Single cell suspensions are prepared in CMF-PBS, and cell concentration adjusted to 1×10^8 cells/mL. Mice are inoculated subcutaneously (s.c.) on the right flank or right leg with a total of 1×10^7 cells (100 μL). Mice are randomized (5-15 mice/group) into four treatment groups and used when tumors reach a volume of […] (usually 7-11 days post-inoculation). Tumors are measured with vernier calipers and tumor volumes are estimated using the empirically derived formula: tumor volume (cm^3)=tumor length (cm)×tumor width (cm)×tumor depth (cm)/3.3. […] Tumor size is monitored every other day for the duration of the experiment.

| SMILES | phosphorylation of Chk1 serine 296 [1] | phosphorylation of Chk1 serines 317 and 345 [2] | tumor growth [3] |
| --- | --- | --- | --- |
| Nc1ccn([C@@H]2O[C@H](CO)[C@@H](O)C2(F)F)c(=O)n1 [gemcitabine, 2′,2′-difluoro-2′-deoxycytidine] | results in the phosphorylation of serine 296 | results in the phosphorylation of both serines 317 and 345 | A delay in tumor growth is observed |
| COC[C@H]1OC(=O)c2coc3c2[C@@]1(C)C1=C(C3=O)[C@@H]2CCC(=O)[C@@]2(C)C[C@H]1OC(C)=O [wortmannin] | not inhibited |  |  |
